Read-outs that look alike come from different tables or passages of the source. Each block holds one compound with its values, some of them ahead of it.
Assays:
[1] = molecular target: VEGFR-2 tyrosine kinase (KDR) (Homo sapiens (Human), UniProt P35968); experiment: VEGFR-2 tyrosine kinase inhibitory activity (ADP-Glo kinase assay); format: biochemical; conditions: KDR 50 ng
Experimental: The inhibitory activities of the compounds of the present invention against VEGFR-2 tyrosine kinase were analyzed using ADP-Glo™ kinase assay kit commercially available from Promega. In the principle of the analysis, kinase, a substrate and ATP are reacted with one another, and then ADP-Glo™ solution is added thereto. The ATP is removed while leaving the produced ADP, and the remaining ADP is converted to ATP by use of a kinase detection reagent, and the ATP is reacted with a luciferin substrate, and the emitted luminescence is measured.
Reaction time: 30 min (30° C.)/40 min/30 min;

LS513 KRAS G12V (colon) = experiment: MTT assay; format: cell-based; conditions: Homo sapiens, LS-513, 72 h, 3 days incubation, read-out: MTT assay IC50 KRAS mutant (Colon) LS513 KRAS G12V
Method in brief: (§1)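 Cells were seeded at line-dependent density and stabilised overnight at 37 °C, then exposed to compounds for 3 days at 37 °C. MTT was then added for 2 h and the formazan dissolved in DMSO.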

SW620 KRAS G12V (colon) = experiment: MTT assay; format: cell-based; conditions: Homo sapiens, SW-620, 72 h; Table 5; 3 days incubation; read-out: MTT assay IC50 KRAS mutant (Colon) SW620 KRAS G12V
Method in brief: as §1

[2] = system: SK-MEL2 NRAS Q61R (melanoma); experiment: MTT assay; format: cell-based; conditions: Homo sapiens, SK-MEL-2, 72 h; Table 5; 3 days incubation
Method in brief: as §1

HUVEC (VEGF) = experiment: MTT assay; format: cell-based; conditions: Homo sapiens, 72 h, Table 5, 3 days incubation
Method in brief: as §1

WiDR BRAF V600E (colon) = experiment: MTT assay; format: cell-based; conditions: Homo sapiens, 72 h, Table 5, 3 days incubation, read-out: MTT assay IC50 BRAF mutant (Colon) WiDR BRAF V600E
Method in brief: as §1

[3] = system: HCT-116 KRAS G13D (colon); experiment: MTT assay; format: cell-based; conditions: Homo sapiens, HCT-116, 72 h; Table 5; 3 days incubation; read-out: MTT assay IC50 KRAS mutant (Colon) HCT-116 KRAS G13D
Method in brief: as §1

[4] = system: A-375P BRAF V600E (melanoma); experiment: MTT assay; format: cell-based; conditions: A375P, 72 h; Table 5; 3 days incubation
Method in brief: as §1

B-Raf = B-Raf (Homo sapiens (Human), UniProt P15056); experiment: Raf kinase inhibitory activity (Raf/MEK1/MAPK2 cascade, MBP phosphorylation, 32P); format: biochemical
Chain of B-Raf (P15056 whole entry): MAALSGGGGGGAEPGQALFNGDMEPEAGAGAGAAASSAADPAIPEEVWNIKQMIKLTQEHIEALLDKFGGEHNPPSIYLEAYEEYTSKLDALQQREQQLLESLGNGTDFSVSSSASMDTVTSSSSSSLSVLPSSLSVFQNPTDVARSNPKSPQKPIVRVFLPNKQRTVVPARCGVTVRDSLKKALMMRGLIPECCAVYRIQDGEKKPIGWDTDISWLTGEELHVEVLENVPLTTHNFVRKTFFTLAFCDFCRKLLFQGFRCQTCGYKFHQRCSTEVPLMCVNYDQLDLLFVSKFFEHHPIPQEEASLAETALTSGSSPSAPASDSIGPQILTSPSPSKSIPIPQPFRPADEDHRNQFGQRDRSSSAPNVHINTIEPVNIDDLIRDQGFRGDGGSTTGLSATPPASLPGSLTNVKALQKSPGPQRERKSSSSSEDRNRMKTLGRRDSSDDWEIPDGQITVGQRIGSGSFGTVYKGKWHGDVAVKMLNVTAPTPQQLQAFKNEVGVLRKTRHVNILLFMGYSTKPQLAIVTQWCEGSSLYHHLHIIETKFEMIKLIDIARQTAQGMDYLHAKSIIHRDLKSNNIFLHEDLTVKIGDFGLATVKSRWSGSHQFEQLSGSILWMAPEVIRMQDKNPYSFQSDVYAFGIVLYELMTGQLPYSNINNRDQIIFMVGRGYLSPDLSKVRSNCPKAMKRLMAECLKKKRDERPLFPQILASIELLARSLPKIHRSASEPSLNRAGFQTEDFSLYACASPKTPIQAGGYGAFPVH
Experimental: (§2) In order to examine the inhibitory activities of the compounds of the present invention against Raf kinases (B-Raf, C-Raf, B-Raf^V600E), the following experiment was performed.
(§3) (1) Consecutive Signal Transduction Reaction
(§4) To a centrifugation tube, 20 μl of a dilution solvent (20 mM MOPS, pH 7.2, 25 mM (3-glycerol phosphate, 5 mM EGTA, 1 mM sodium orthovanadate, 1 mM dithiothreitol) and 20 μl of a Mg/ATP mixture (500 μM ATP and 75 mM magnesium chloride) were added. Then, each of the derivative compounds of formula 1 was added. As a control, 1 ng of activated raf, 0.4 ng of inactivated MEK1 and 1 μg of inactivated MAPK2 were added without adding Example compounds. The solutions in the tube were concentrated at the bottom of the tube by centrifugation, and then allowed to react at 30° C. for 30 minutes, and 4 μl of the mixture solution was taken and used in the next experimental step.
(§5) (2) Phosphorylation of Substrate Protein MBP by MAPK2
(§6) To 4 μl of the mixture solution taken in (1), 10 μl of a dilution solvent, 20 μg of MBP as a substrate, and 10 μl of diluted [γ-32P]ATP (1 μCi/μL) were added. The solutions in the tube were concentrated at the bottom of the tube by centrifugation, and then allowed to react at 30° C. for 30 minutes. 25 μl of the reaction solution was carefully placed on the center of 2 cm×2 cm P81 filter paper for 30 seconds. Next, the filter paper was washed three times with 0.75% phosphoric acid solution for 10 minutes each time and washed once with acetone for 5 minutes. Next, the filter paper was transferred into a scintillation vial, and 5 ml of a scintillation cocktail was added thereto. Raf activity inhibition rate (IC50) was measured by reading the radioactivity with a scintillation counter in comparison with the control.

B-Raf V600E = B-Raf V600E (Homo sapiens (Human), UniProt P15056, V600E); experiment: as above; format: biochemical
Chain of B-Raf V600E (P15056 whole entry V600E): as the sequence (P15056 whole entry) above, with V600E counted along it
Experimental: as §2, §3, §4, §5, §6

C-Raf = C-Raf (Homo sapiens (Human), UniProt P04049); experiment: as above; format: biochemical
Chain of C-Raf (P04049 whole entry): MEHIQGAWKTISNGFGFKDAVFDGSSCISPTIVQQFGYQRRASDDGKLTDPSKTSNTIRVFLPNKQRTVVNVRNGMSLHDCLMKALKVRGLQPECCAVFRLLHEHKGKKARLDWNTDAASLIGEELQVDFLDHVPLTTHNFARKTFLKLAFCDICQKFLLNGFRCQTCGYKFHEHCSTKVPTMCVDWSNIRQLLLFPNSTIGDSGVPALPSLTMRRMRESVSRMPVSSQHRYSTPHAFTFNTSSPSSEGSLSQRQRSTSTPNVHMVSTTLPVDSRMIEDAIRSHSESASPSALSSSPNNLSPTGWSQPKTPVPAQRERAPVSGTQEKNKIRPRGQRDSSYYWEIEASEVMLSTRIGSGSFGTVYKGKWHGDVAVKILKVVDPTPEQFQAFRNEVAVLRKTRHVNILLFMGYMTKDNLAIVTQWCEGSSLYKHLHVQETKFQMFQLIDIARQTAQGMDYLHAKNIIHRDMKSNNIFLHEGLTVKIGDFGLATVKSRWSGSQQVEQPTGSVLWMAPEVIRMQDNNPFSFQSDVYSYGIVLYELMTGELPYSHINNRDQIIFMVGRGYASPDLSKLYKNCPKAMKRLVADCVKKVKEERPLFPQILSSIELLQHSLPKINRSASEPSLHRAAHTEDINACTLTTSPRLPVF
Experimental: as §2, §3, §4, §5, §6

[5] = system: LS513 human colorectal cancer cell line xenograft; experiment: Antitumor effect on human colorectal cancer LS513 cell line xenograft; format: in vivo, Balb/c nu/nu nude mice; conditions: oral, twice a day, 14 days
From the text: In this experiment, 5 to 6-week-old female Balb/c nu/nu nude mice (weighed 18 to 20 g) were used. The mice were provided from Nara Biotech Co., Ltd. During the experiment, all the animals were housed on a mouse constant temperature/constant humidity shelf (Individually Ventilated Cages System, LAB & BIO).
Each cage (37.2 cm length×19.2 cm width×13.1 cm height) was sterilized with a sterilizer, and eight mice were received in each cage. The mice were maintained in a hygienic environment controlled to a temperature of 20 to 24° C. and a humidity of 40 to 70% with a 12-hr light/12-hr dark cycle. The mice were allowed to access sterilized feed and drinking water ad libitum. The care and treatment of these animals were carried out according to the Laboratory Animal Care Guidelines of Samjin Pharmaceutical Co., Ltd.
The mice were acclimated to the housing facility for 1 week, and then 0.1 mL of a cell suspension containing 1×10^7 cells was injected subcutaneously into the right flank of each mouse. After cell transplantation, the volume of the formed tumor was measured, and mice with formed tumors having a volume of 150 mm^3 or more were randomly divided into groups (each consisting of 7 to 8 animals) for treatment with the test compounds and a control. […] Administration of the drugs was continued for 14 days. […] At 3-day intervals from the starting day of the administration, the long axis and short axis of the tumor were measured with digital vernier calipers, and the tumor volume was calculated using the following equation and recorded: Tumor volume (TV)=Long axis×short axis^2/2.
Tumor growth inhibition for absolute tumor volume was calculated using the following equation. In the following equation, V0 is the tumor volume on the first day of drug administration (day 0), and Vt is the tumor volume after last drug administration.

Chain of VEGFR-2 tyrosine kinase (KDR) (P35968 20-1356): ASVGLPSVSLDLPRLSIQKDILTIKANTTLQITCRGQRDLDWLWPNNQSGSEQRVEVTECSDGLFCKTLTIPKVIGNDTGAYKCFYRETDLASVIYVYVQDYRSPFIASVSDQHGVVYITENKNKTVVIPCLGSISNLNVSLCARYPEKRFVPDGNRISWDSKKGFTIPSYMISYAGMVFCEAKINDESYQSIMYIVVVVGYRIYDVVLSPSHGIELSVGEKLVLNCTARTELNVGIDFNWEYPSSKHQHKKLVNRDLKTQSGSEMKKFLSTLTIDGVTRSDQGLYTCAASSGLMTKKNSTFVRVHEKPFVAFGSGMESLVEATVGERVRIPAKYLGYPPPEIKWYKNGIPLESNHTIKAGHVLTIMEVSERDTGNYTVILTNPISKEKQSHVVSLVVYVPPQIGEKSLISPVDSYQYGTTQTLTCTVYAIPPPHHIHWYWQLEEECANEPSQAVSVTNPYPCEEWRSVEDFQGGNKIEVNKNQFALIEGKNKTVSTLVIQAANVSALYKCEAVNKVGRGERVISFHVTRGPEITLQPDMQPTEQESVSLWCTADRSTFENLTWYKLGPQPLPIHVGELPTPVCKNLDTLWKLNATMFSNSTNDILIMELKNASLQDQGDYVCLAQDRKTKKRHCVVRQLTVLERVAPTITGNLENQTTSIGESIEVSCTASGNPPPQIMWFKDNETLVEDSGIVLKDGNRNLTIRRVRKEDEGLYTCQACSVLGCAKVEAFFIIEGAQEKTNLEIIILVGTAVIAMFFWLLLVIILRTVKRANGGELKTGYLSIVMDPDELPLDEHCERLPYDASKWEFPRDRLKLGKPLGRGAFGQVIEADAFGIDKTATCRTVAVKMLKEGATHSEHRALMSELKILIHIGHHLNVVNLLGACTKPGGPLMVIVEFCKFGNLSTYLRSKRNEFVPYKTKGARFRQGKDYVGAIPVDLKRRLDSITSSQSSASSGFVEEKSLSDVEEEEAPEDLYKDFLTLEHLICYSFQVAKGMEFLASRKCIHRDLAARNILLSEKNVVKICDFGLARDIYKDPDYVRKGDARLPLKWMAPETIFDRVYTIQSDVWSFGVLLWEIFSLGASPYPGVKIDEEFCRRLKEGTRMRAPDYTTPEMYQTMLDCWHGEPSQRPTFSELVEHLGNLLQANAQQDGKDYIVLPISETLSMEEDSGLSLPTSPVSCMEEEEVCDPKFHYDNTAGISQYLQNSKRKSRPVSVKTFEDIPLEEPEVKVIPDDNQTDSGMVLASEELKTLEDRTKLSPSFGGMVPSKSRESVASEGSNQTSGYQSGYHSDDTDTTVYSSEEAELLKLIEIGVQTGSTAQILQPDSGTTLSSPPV

IC50 [1]: 1600 nM
SMILES: Cc1ccc(NC(=O)c2cccc(C(F)(F)F)c2)cc1Nc1ncccc1-c1ncnc2[nH]cnc12 [Example 71, N-4-Methyl-5-[3-(9H-Purin-6-Yl)Pyridin-2-Ylamino)Phenyl-3-Trifluoromethylbenzamide]
IC50 (LS513 KRAS G12V (colon); Table 4): 565 nM

SMILES: CC(C)(C#N)c1cccc(C(=O)Nc2cc(Nc3ncccc3-c3ncnc4[nH]cnc34)ccc2F)c1 [Example 21, N-(5-(3-(9H-purin-6-yl)pyridin-2-ylamino)-2-fluorophenyl)-3-(2-cyanopropan-2-yl)benzamide]
IC50 (SW620 KRAS G12V (colon)): 249 nM | IC50 [2]: 129 nM | IC50 (HUVEC (VEGF)): 40 nM | IC50 (WiDR BRAF V600E (colon)): 28 nM | IC50 (LS513 KRAS G12V (colon); Table 4): 333 nM | IC50 (LS513 KRAS G12V (colon); Table 5): 160 nM | IC50 [3]: 63 nM | IC50 [4]: 24 nM | IC50 (B-Raf): 21 nM | IC50 (B-Raf V600E): 10 nM | IC50 (C-Raf): 10 nM | antitumor effect (tumor growth inhibition) compared to the control group ([5]; 30 mg/kg): about 66.7% | antitumor effect (tumor growth inhibition) compared to the control group ([5]; 60 mg/kg): 90.3%

SMILES: O=C(Nc1cc(Nc2ncccc2-c2ncnc3[nH]cnc23)ccc1F)c1cc(F)cc(C(F)(F)F)c1 [Example 36, N-(5-(3-(9H-Purin-6-Yl)Pyridin-2-Ylamino)-2-Fluorophenyl)-3-Fluoro-5-(Trifluoromethyl)Benzamide]
IC50 (SW620 KRAS G12V (colon)): 675 nM | IC50 [2]: 388 nM | IC50 (HUVEC (VEGF)): 15 nM | IC50 (WiDR BRAF V600E (colon)): 644 nM | IC50 (LS513 KRAS G12V (colon); Table 4): 250 nM | IC50 (LS513 KRAS G12V (colon); Table 5): 126 nM | IC50 [3]: 117 nM | IC50 [4]: 271 nM | IC50 (B-Raf): 71 nM | IC50 (B-Raf V600E): 30 nM | IC50 (C-Raf): 41 nM | antitumor effect (tumor growth inhibition) compared to the vehicle control ([5]; 60 mg/kg or 30 mg/kg (dose not specified per compound)): 78.5%
